Reference: US11401278B2, “Macrocyclic indole derivatives” (The Broad Institute, Inc., priority 2017, dated 2022)
Structures can show the parent of a compound that is named as a salt.

Columns and labels:
MCL-1 = MCL-1 (Homo sapiens (Human), UniProt Q07820, K194A/K197A/R201A); assay: Protein-protein interaction assay MCL-1/Noxa BH3 peptide (MCL-1 assay, TR-FRET); format: binding; details: MBP-MCL-1 / Noxa BH3 peptide, median
Method in brief: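 TR-FRET competition assay read at 665/620 nm, with a Noxa BH3 tracer peptide (1 nM) plus Eu-cryptate anti-MBP and XL665-streptavidin. Compounds (0.1 nM-20 μM, duplicates) were pre-equilibrated 10 min at 22° C with 1 nM MBP-MCL-1 (173-329) in Tris pH 7, NaCl, KF, DTT buffer, then incubated 1 h at 22° C and overnight at 4° C. IC50 came from 4-parameter regression.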

SUDHL10 = assay: Induction of caspase-3/7 activity (Assay 4), SUDHL10; format: cell-based; details: caspase-3/7 induction, 3 hours, median
Method in brief: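 DLBCL cells were exposed to compounds for 3 hours at 37 °C, then caspase-3/7 activation was read with Caspase-Glo 3/7 reagent. After subtracting medium-only background, EC50s were derived with fixed C0=1 and the reference compound's maximal induction as plateau.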

SUDHL5 = assay: Induction of cytotoxicity (Assay 6), SUDHL5; details: read-out: Cytotox SUDHL5 [M] (median) IC50, CellTiter-Glo, 5 hours, SUDHL5
Procedure: Assay 6 Induction of Cytotoxicity Upon Treatment of Cells with Selected Compounds
Therefore, cytotoxicity assays were run in parallel in SUDHL5 and SUDHL10 cells.
The different cell lines were plated in culture medium (RPMI 1640 [GIBCO #22400-089] supplemented with 10% Fetal Bovine Serum) at a density of 3,300 cells in 30 μl/well in a sterile, solid black, flat bottom, polystyrene, TC-treated 384-well microplate (Corning #3571) using Multidrop Combi Reagent Dispenser. As a control, medium without cells was also added to the plate. Cells were incubated in a humidified incubator at 37° C. overnight. On the next day, the cells were treated with compounds (stock solution, 10 mM in DMSO) using the HP D300 Digital Dispenser in a concentration range of 3.3×10e-5 M (33 μM) to 5×10e-9 M (5 nM) in a single-dot curve with at least 16 dilutions and a DMSO concentration of 0.33%. Rim wells were excluded. The cells were incubated for 5 hours in a humidified incubator at 37° C. After this incubation, 30 μl of CellTiter-Glo® Luminescent Cell Viability reagent (Promega, G7573) was added to each well using the Multidrop Combi Reagent Dispenser, followed by 15 minutes incubation on a shaker at room temperature. Finally, luminescence was read at 0.1 ms, with a gain of 3000 using the PHERAstar FS microplate reader (BMG Labtech).

Chain of MCL-1 (Q07820 whole entry K194A/K197A/R201A, looked up): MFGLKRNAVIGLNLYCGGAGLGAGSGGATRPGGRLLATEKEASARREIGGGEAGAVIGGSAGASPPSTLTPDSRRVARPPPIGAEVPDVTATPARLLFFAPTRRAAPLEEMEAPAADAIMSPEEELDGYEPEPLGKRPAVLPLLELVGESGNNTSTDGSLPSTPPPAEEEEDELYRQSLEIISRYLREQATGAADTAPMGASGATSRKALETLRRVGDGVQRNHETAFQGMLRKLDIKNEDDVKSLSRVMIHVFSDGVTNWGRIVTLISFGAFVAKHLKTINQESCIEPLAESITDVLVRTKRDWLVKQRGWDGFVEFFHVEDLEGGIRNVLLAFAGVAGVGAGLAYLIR

| IC50 (MCL-1) [nM] | EC50 (SUDHL10) [nM] | SMILES | IC50 (SUDHL5) [M] |
| --- | --- | --- | --- |
| 0.6 | 200 | CCc1c2c(nn1C)CN(C)S(=O)(=O)CCCn1c(C(=O)O)c(CCCOc3cccc4cc(F)ccc34)c3ccc(Cl)c-2c31 (single isomer, unassigned; enantiomer 1) [Example 36, (+)-4-chloro-3-ethyl-7-{3-[(6-fluoronaphthalen-1-yl)oxy]propyl}-2,14-dimethyl-13,13-dioxo-10,11,12,13,14,15-hexahydro-2H-13lambda^6-pyrazolo[3′,4′:4,5][1,2,8]thiadiazacycloundecino-[6,7,8-hi]indole-8-carboxylic acid (Enantiomer 1)] | 1.6e-07 |
| 23 | 22000 | Cc1c2c(nn1C)CN(C)S(=O)(=O)CCCn1c(C(=O)O)c(CCCOc3cccc4cc(F)ccc34)c3ccc(F)c-2c31 (single isomer, unassigned; enantiomer 1) [Example 38, (−)-4-fluoro-7-{3-[(6-fluoronaphthalen-1-yl)oxy]propyl}-2,3,14-trimethyl-13,13-dioxo-10,11,12,13,14,15-hexahydro-2H-13lambda^6-pyrazolo[3′,4′:4,5][1,2,8]thiadiazacycloundecino-[6,7,8-hi]indole-8-carboxylic acid (Enantiomer 1)] | 1.7e-05 |
| 33 | 23000 | Cc1c2c(nn1C)C(CCN1CCOCC1)N(C)S(=O)(=O)CCCn1c(C(=O)O)c(CCCOc3cccc4ccccc34)c3cccc-2c31 (single isomer, unassigned; enantiomer 1) [Example 45, 2,3,14-trimethyl-15-[2-(morpholin-4-yl)ethyl]-7-{3-[(naphthalen-1-yl)oxy]propyl}-13,13-dioxo-10,11,12,13,14,15-hexahydro-2H-13lambda^6-pyrazolo[3′,4′:4,5][1,2,8]thiadiazacycloundecino[6,7,8-hi]indole-8-carboxylic acid N-ethylethanamine Salt (Enantiomer 1)] | 2e-05 |
| 0.96 | 490 | Cc1c2c(nn1C)CNS(=O)(=O)CCCn1c(C(=O)O)c(CCCOc3cccc4cc(F)ccc34)c3ccc(Cl)c-2c31 (single isomer, unassigned; enantiomer 1) [Example 51, 4-chloro-7-{3-[(6-fluoronaphthalen-1-yl)oxy]propyl}-2,3-dimethyl-13,13-dioxo-10,11,12,13,14,15-hexahydro-2H-13lambda^6-pyrazolo[3′,4′:4,5][1,2,8]thiadiazacycloundecino[6,7,8-hi]indole-8-carboxylic acid (Enantiomer 1)] | 5e-07 |
| 0.64 | 520 | CCc1c2c(nn1C)CN(C1CC1)S(=O)(=O)CCCn1c(C(=O)O)c(CCCOc3cccc4cc(F)ccc34)c3ccc(Cl)c-2c31 (single isomer, unassigned; enantiomer 1) [Example 54, (−)-4-chloro-14-cyclopropyl-3-ethyl-7-{3-[(6-fluoronaphthalen-1-yl)oxy]propyl}-2-methyl-13,13-dioxo-10,11,12,13,14,15-hexahydro-2H-13lambda^6-pyrazolo[3′,4′:4,5][1,2,8]thiadiazacycloundecino[6,7,8-hi]indole-8-carboxylic acid N-ethylethanamine Salt (Enantiomer 1)] | 3.6e-07 |
| 0.48 | 110 | CCc1c2c(nn1C)CN(CC)S(=O)(=O)CCCn1c(C(=O)O)c(CCCOc3cccc4cc(F)ccc34)c3ccc(Cl)c-2c31 (single isomer, unassigned; enantiomer 1) [Example 57, (+)-4-chloro-3,14-diethyl-7-{3-[(6-fluoronaphthalen-1-yl)oxy]propyl}-2-methyl-13,13-dioxo-10,11,12,13,14,15-hexahydro-2H-13lambda^6-pyrazolo[3′,4′:4,5][1,2,8]thiadiazacycloundecino[6,7,8-hi]indole-8-carboxylic acid N-ethylethanamine Salt (Enantiomer 1)] | 1.1e-07 |
| 0.94 | 24 | CCc1c2c(nn1C)C(CCC1CCOCC1)N(C)S(=O)(=O)CCCn1c(C(=O)O)c(CCCOc3cccc4cc(F)ccc34)c3ccc(Cl)c-2c31 (single isomer, unassigned; enantiomer 1) [Example 61, (+)-4-chloro-3-ethyl-7-{3-[(6-fluoronaphthalen-1-yl)oxy]propyl}-2,14-dimethyl-15-[2-(oxan-4-yl)ethyl]-13,13-dioxo-10,11,12,13,14,15-hexahydro-2H-13lambda^6-pyrazolo[3′,4′:4,5][1,2,8]thiadiazacycloundecino[6,7,8-hi]indole-8-carboxylic acid (Enantiomer 1)] | 2.8e-08 |
| 22 | 6000 | Cc1c2c(nn1C)C(CCN1CCOCC1)N(C)S(=O)(=O)CCCn1c(C(=O)O)c(CCCOc3cccc4cc(F)ccc34)c3ccc(Cl)c-2c31 (single isomer, unassigned; enantiomer 1) [Example 66, 4-chloro-7-{3-[(6-fluoronaphthalen-1-yl)oxy]propyl}-2,3,14-trimethyl-15-[2-(morpholin-4-yl)ethyl]-13,13-dioxo-10,11,12,13,14,15-hexahydro-2H-13lambda^6-pyrazolo[3′,4′:4,5][1,2,8]thiadiazacycloundecino[6,7,8-hi]indole-8-carboxylic acid (Enantiomer 1)] | 3.3e-06 |
| 270 | > 33000 | Cc1c2c(nn1C)CN(CCN1CCOCC1)S(=O)(=O)CCCn1c(C(=O)O)c(CCCOc3cccc4ccccc34)c3cccc-2c31 (single isomer, unassigned; enantiomer 2) [Example 3, 2,3-Dimethyl-14-[2-(morpholin-4-yl)ethyl]-7-{3-[(naphthalen-1-yl)oxy]propyl}-13,13-dioxo-10,11,12,13,14,15-hexahydro-2H-13λ^6-pyrazolo[3′,4′:4,5][1,2,8]thiadiazacycloundecino-[6,7,8-hi]indole-8-carboxylic acid-N-ethylethanamine salt (Enantiomer 2)] | > 3.3e-05 |
| 11 | 14000 | Cc1c2c(nn1C)CN(C)S(=O)(=O)CCCn1c(C(=O)O)c(CCCOc3cccc4ccccc34)c3ccc(Cl)c-2c31 (single isomer, unassigned; enantiomer 2) [Example 6, 4-Chloro-2,3,14-trimethyl-7-{3-[(naphthalen-1-yl)oxy]propyl}-13,13-dioxo-10,11,12,13,14,15-hexahydro-2H-13λ^6-pyrazolo[3′,4′:4,5][1,2,8]thiadiazacycloundecino[6,7,8-hi]indole-8-carboxylic acid-N-ethylethanamine salt (Enantiomer 2)] | 1.2e-05 |
| 34 | > 33000 | CCc1c2c(nn1C)CN(C)S(=O)(=O)CCCn1c(C(=O)O)c(CCCOc3cccc4cc(F)ccc34)c3ccc(F)c-2c31 (single isomer, unassigned; enantiomer 2) [Example 9, (−)-3-Ethyl-4-fluoro-7-{3-[(6-fluoronaphthalen-1-yl)oxy]propyl}-2,14-dimethyl-13,13-dioxo-10,11,12,13,14,15-hexahydro-2H-13λ^6-pyrazolo[3′,4′:4,5][1,2,8]thiadiazacycloundecino-[6,7,8-hi]indole-8-carboxylic acid (Enantiomer 2)] | 1.7e-05 |
| 11 | 12000 | CCc1c2c(nn1C)CN(C)S(=O)(=O)CCCn1c(C(=O)O)c(CCCOc3cccc4cc(F)ccc34)c3ccc(Cl)c-2c31 (single isomer, unassigned; enantiomer 2) [Example 37, (−)-4-chloro-3-ethyl-7-{3-[(6-fluoronaphthalen-1-yl)oxy]propyl}-2,14-dimethyl-13,13-dioxo-10,11,12,13,14,15-hexahydro-2H-13lambda^6-pyrazolo[3′,4′:4,5][1,2,8]thiadiazacycloundecino-[6,7,8-hi]indole-8-carboxylic acid (Enantiomer 2)] | 5.7e-06 |
| 0.89 | 730 | Cc1c2c(nn1C)CN(C)S(=O)(=O)CCCn1c(C(=O)O)c(CCCOc3cccc4cc(F)ccc34)c3ccc(F)c-2c31 (single isomer, unassigned; enantiomer 2) [Example 39, (+)-4-fluoro-7-{3-[(6-fluoronaphthalen-1-yl)oxy]propyl}-2,3,14-trimethyl-13,13-dioxo-10,11,12,13,14,15-hexahydro-2H-13lambda^6-pyrazolo[3′,4′:4,5][1,2,8]thiadiazacycloundecino-[6,7,8-hi]indole-8-carboxylic acid (Enantiomer 2)] | 4.5e-07 |

| SMILES | IC50 (MCL-1) [nM] | EC50 (SUDHL10) [nM] | IC50 (SUDHL5) [M] |
| --- | --- | --- | --- |
| Cc1c2c(nn1C)CN(C1CC1)S(=O)(=O)CCCn1c(C(=O)O)c(CCCOc3cccc4cc(F)ccc34)c3ccc(Cl)c-2c31 (single isomer, unassigned; enantiomer 1) [Example 42, (−)-4-chloro-14-cyclopropyl-7-{3-[(6-fluoro-1-naphthyl)oxy]propyl}-2,3-dimethyl-11,12,14,15-tetrahydro-2H,10H-pyrazolo[3′,4′:4,5][1,2,8]thiadiazacycloundecino[6,7,8-hi]indole-8-carboxylic acid 13,13-dioxide N-diethylamine salt (Enantiomer 1)] | 0.34 | 290 | 3e-07 |
